Measured values reported in ChEMBL document CHEMBL6127119 (J Med Chem, 2024).
In brackets after ≈: the same amount, converted by molar mass.

How the values were obtained:
[1] = system: Enterococcus faecium; test: Potency index, ratio of Vancomycin MIC to test compound MIC for vancomycin-resistant Enterococcus faecium incubated for 16 to 24 hrs by CLSI based broth microdilution method; format: functional; conditions: time 16-24 hrs
[2] = system: Staphylococcus aureus; test: Antibacterial activity against vancomycin-intermediate Staphylococcus aureus incubated for 16 to 24 hrs by CLSI based broth microdilution method; format: functional; conditions: time 16-24 hrs
[3] = system: Enterococcus faecium; test: Antibacterial activity against vancomycin-resistant Enterococcus faecium harboring VanM phenotype incubated for 16 to 24 hrs by CLSI based broth microdilution method; format: functional; conditions: time 16-24 hrs
[4] = system: Acinetobacter baumannii; test: Potency index, ratio of Vancomycin MIC to test compound MIC for Carbapenem-resistant Acinetobacter baumannii clinical isolate incubated for 16 to 24 hrs by CLSI based broth microdilution method; format: functional; conditions: time 16-24 hrs
[5] = system: Acinetobacter baumannii; test: Potency index, ratio of Norvancomycin MIC to test compound MIC for Carbapenem-resistant Acinetobacter baumannii clinical isolate incubated for 16 to 24 hrs by CLSI based broth microdilution method; format: functional; conditions: time 16-24 hrs
[6] = system: Escherichia coli; test: Antibacterial activity against Escherichia coli AB1157 incubated for 16 to 24 hrs by CLSI based broth microdilution method; format: functional; conditions: time 16-24 hrs
[7] = system: Escherichia coli; test: Potency index, ratio of Norvancomycin MIC to test compound MIC for Escherichia coli […] incubated for 16 to 24 hrs by CLSI based broth microdilution method; format: functional; conditions: time 16-24 hrs
[8] = system: Klebsiella pneumoniae; test: Antibacterial activity against Klebsiella pneumoniae clinical isolate incubated for 16 to 24 hrs by CLSI based broth microdilution method; format: functional; conditions: time 16-24 hrs
[9] = system: Escherichia coli; test: Potency index, ratio of Vancomycin MIC to test compound MIC for Escherichia coli […] incubated for 16 to 24 hrs by CLSI based broth microdilution method; format: functional; conditions: time 16-24 hrs
[10] = system: Enterococcus faecium; test: Antibacterial activity against vancomycin-resistant Enterococcus faecium harboring VanA phenotype incubated for 16 to 24 hrs by CLSI based broth microdilution method; format: functional; conditions: time 16-24 hrs
[11] = system: Enterococcus faecium; test: Potency index, ratio of Norvancomycin MIC to test compound MIC for vancomycin-resistant Enterococcus faecium incubated for 16 to 24 hrs by CLSI based broth microdilution method; format: functional; conditions: time 16-24 hrs
[12] = system: Staphylococcus aureus; test: Antibacterial activity against methicillin-susceptible Staphylococcus aureus incubated for 16 to 24 hrs by CLSI based broth microdilution method; format: functional; conditions: time 16-24 hrs
[13] = system: Enterococcus faecium; test: Antibacterial activity against vancomycin-resistant Enterococcus faecium harboring VanB phenotype incubated for 16 to 24 hrs by CLSI based broth microdilution method; format: functional; conditions: time 16-24 hrs
[14] = system: Staphylococcus aureus; test: Potency index, ratio of Norvancomycin MIC to test compound MIC for vancomycin-intermediate Staphylococcus aureus incubated for 16 to 24 hrs by CLSI based broth microdilution method; format: functional; conditions: time 16-24 hrs
[15] = system: Staphylococcus aureus; test: Potency index, ratio of Vancomycin MIC to test compound MIC for vancomycin-intermediate Staphylococcus aureus incubated for 16 to 24 hrs by CLSI based broth microdilution method; format: functional; conditions: time 16-24 hrs
[16] = system: Acinetobacter baumannii; test: Antibacterial activity against Carbapenem-resistant Acinetobacter baumannii clinical isolate incubated for 16 to 24 hrs by CLSI based broth microdilution method; format: functional; conditions: time 16-24 hrs
[17] = system: Pseudomonas aeruginosa; test: Antibacterial activity against Pseudomonas aeruginosa PAO1 incubated for 16 to 24 hrs by CLSI based broth microdilution method; format: functional; conditions: time 16-24 hrs
[18] = system: HEK-293T; test: Cytotoxicity against HEK293T cells upto […] incubated for 72 hrs by MTT assay; format: toxicity, cell-based; conditions: human
[19] = system: HEK-293T; test: Cytotoxicity against HEK293T cells at 100 ug/ml incubated for 72 hrs by MTT assay; format: toxicity, cell-based; conditions: human, dose 100 µg/ml

SMILES	Ratio [1]	MIC [2]	MIC [3]	Ratio [4]	Ratio [5]	MIC [6]	Ratio [7]	MIC [8]	Ratio [9]	MIC [10]	Ratio [11]	MIC [12]	MIC [13]	Ratio [14]	Ratio [15]	MIC [16]	MIC [17]	Activity [18]	Activity [19]
CN[C@H](CC(C)C)C(=O)N[C@H]1C(=O)N[C@@H](CC(N)=O)C(=O)N[C@H]2C(=O)N[C@H]3C(=O)N[C@H](C(=O)N[C@H](C(=O)NCCc4ccc(-c5ccc(CNC(=N)N)cc5)cc4)c4cc(O)cc(O)c4-c4cc3ccc4O)[C@H](O)c3ccc(c(Cl)c3)Oc3cc2cc(c3O[C@@H]2O[C@H](CO)[C@@H](O)[C@H](O)[C@H]2O[C@H]2C[C@](C)(N)[C@H](O)[C@H](C)O2)Oc2ccc(cc2Cl)[C@H]1O	2	0.5 µg/mL (≈ 0.294 µM)	2 µg/mL (≈ 1.18 µM)	2	2	8 µg/mL (≈ 4.71 µM)	2	> 128 µg/mL	2	2 µg/mL (≈ 1.18 µM)	2	0.125 µg/mL (≈ 0.0735 µM)	4 µg/mL (≈ 2.35 µM)	2	2	64 µg/mL (≈ 37.7 µM)			
CC(C)C[C@@H](N)C(=O)N[C@H]1C(=O)N[C@@H](CC(N)=O)C(=O)N[C@H]2C(=O)N[C@H]3C(=O)N[C@H](C(=O)N[C@H](C(=O)NCCc4ccc(-c5ccc(CNC(=N)N)cc5)cc4)c4cc(O)cc(O)c4-c4cc3ccc4O)[C@H](O)c3ccc(c(Cl)c3)Oc3cc2cc(c3O[C@@H]2O[C@H](CO)[C@@H](O)[C@H](O)[C@H]2O[C@H]2C[C@](C)(N)[C@H](O)[C@H](C)O2)Oc2ccc(cc2Cl)[C@H]1O	2	0.5 µg/mL (≈ 0.297 µM)	4 µg/mL (≈ 2.37 µM)	2	2	8 µg/mL (≈ 4.75 µM)	2	> 128 µg/mL	2	4 µg/mL (≈ 2.37 µM)	2	0.125 µg/mL (≈ 0.0742 µM)	4 µg/mL (≈ 2.37 µM)	2	2	128 µg/mL (≈ 75.9 µM)	> 128 µg/mL		
CN[C@H](CC(C)C)C(=O)N[C@H]1C(=O)N[C@@H](CC(N)=O)C(=O)N[C@H]2C(=O)N[C@H]3C(=O)N[C@H](C(=O)N[C@H](C(=O)NCCCCCCCCNC(=N)N)c4cc(O)cc(O)c4-c4cc3ccc4O)[C@H](O)c3ccc(c(Cl)c3)Oc3cc2cc(c3O[C@@H]2O[C@H](CO)[C@@H](O)[C@H](O)[C@H]2O[C@H]2C[C@](C)(N)[C@H](O)[C@H](C)O2)Oc2ccc(cc2Cl)[C@H]1O		1 µg/mL (≈ 0.618 µM)	16 µg/mL (≈ 9.89 µM)			16 µg/mL (≈ 9.89 µM)		128 µg/mL (≈ 79.1 µM)		8 µg/mL (≈ 4.95 µM)		0.25 µg/mL (≈ 0.155 µM)	8 µg/mL (≈ 4.95 µM)			32 µg/mL (≈ 19.8 µM)	128 µg/mL (≈ 79.1 µM)	Non-Toxic	Non-Toxic
CN[C@H](CC(C)C)C(=O)N[C@H]1C(=O)N[C@@H](CC(N)=O)C(=O)N[C@H]2C(=O)N[C@H]3C(=O)N[C@H](C(=O)N[C@H](C(=O)NCc4ccc(-c5ccc(CNC(=N)N)cc5)cc4)c4cc(O)cc(O)c4-c4cc3ccc4O)[C@H](O)c3ccc(c(Cl)c3)Oc3cc2cc(c3O[C@@H]2O[C@H](CO)[C@@H](O)[C@H](O)[C@H]2O[C@H]2C[C@](C)(N)[C@H](O)[C@H](C)O2)Oc2ccc(cc2Cl)[C@H]1O	2	0.5 µg/mL (≈ 0.297 µM)	2 µg/mL (≈ 1.19 µM)	2	2	8 µg/mL (≈ 4.75 µM)	2	> 128 µg/mL	2	2 µg/mL (≈ 1.19 µM)	2	0.125 µg/mL (≈ 0.0742 µM)	1 µg/mL (≈ 0.593 µM)	2	2	32 µg/mL (≈ 19 µM)			
CC(C)C[C@@H](N)C(=O)N[C@H]1C(=O)N[C@@H](CC(N)=O)C(=O)N[C@H]2C(=O)N[C@H]3C(=O)N[C@H](C(=O)N[C@H](C(=O)NCc4ccc(-c5ccccc5CNC(=N)N)cc4)c4cc(O)cc(O)c4-c4cc3ccc4O)[C@H](O)c3ccc(c(Cl)c3)Oc3cc2cc(c3O[C@@H]2O[C@H](CO)[C@@H](O)[C@H](O)[C@H]2O[C@H]2C[C@](C)(N)[C@H](O)[C@H](C)O2)Oc2ccc(cc2Cl)[C@H]1O	2	0.5 µg/mL (≈ 0.299 µM)	2 µg/mL (≈ 1.2 µM)	2	2	8 µg/mL (≈ 4.79 µM)	2	> 128 µg/mL	2	4 µg/mL (≈ 2.39 µM)	2	≤ 0.063 µg/mL	2 µg/mL (≈ 1.2 µM)	2	2	16 µg/mL (≈ 9.57 µM)	32 µg/mL (≈ 19.1 µM)		
